Data from the supplement of paper PMC4862054.

Legend:
Details in all cases: incubation time: 72 h
[1] = tested on: HCC1143; experiment: drug sensitivity score (DSS), CellTox Green (DSS (AUC-based score)); higher = stronger drug effect (viability inhibition or cytotoxicity); extreme values may be limits of the assay
Procedure, shortened: (§1)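 In 384-well plates, compound was laid out at 5 concentrations in 10-fold steps over a 10,000-fold range specific to each compound, and breast cancer cell lines were seeded on top in 20 µl suspension for a 72 h incubation. CellTox Green fluorescence and then CellTiter-Glo luminescence were read, and each plate was normalised to 0.1 % DMSO and a positive kill control. The drug sensitivity score was calculated from the area under the fitted dose-response curve.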

[2] = tested on: BT-474; experiment: as above
Procedure, shortened: as §1

[3] = tested on: CAL-51; experiment: as above
Procedure, shortened: as §1

[4] = tested on: CAL-85-1; experiment: as above
Procedure, shortened: as §1

[5] = tested on: MDA-MB-231; experiment: as above
Procedure, shortened: as §1

[6] = tested on: CAL-148; experiment: as above
Procedure, shortened: as §1

[7] = tested on: MDA-MB-468; experiment: as above
Procedure, shortened: as §1

[8] = tested on: HCC1937; experiment: as above
Procedure, shortened: as §1

[9] = tested on: BT-549; experiment: as above
Procedure, shortened: as §1

[10] = tested on: Hs578T; experiment: as above
Procedure, shortened: as §1

[11] = tested on: MDA-MB-436; experiment: as above
Procedure, shortened: as §1

[12] = tested on: CAL-120; experiment: as above
Procedure, shortened: as §1

[13] = tested on: MCF-10A; experiment: as above
Procedure, shortened: as §1

[14] = tested on: MFM-223; experiment: as above
Procedure, shortened: as §1

[15] = tested on: HCC1599; experiment: as above
Procedure, shortened: as §1

[16] = tested on: DU-4475; experiment: as above
Procedure, shortened: as §1

[17] = tested on: HDQ-P1; experiment: as above
Procedure, shortened: as §1

[18] = tested on: MDA-MB-453; experiment: as above
Procedure, shortened: as §1

[19] = tested on: CAL-51; experiment: normalised viability (% of control), CellTiter-Blue; higher = more viable cells (about 100 = DMSO control)
Procedure, shortened: (§2)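 The reported figure is normalised viability at a single listed concentration of the series. Breast cancer cell lines (20 µl suspension) went onto 384-well plates holding compound in 5 µl medium for 72 h. CellTiter-Blue (2.5 µl, 2 h, 37 °C) was read by fluorescence at 560/590 nm, and each plate was scaled to vehicle at 100 and a positive kill control at 0.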

[20] = tested on: CAL-85-1; experiment: as above
Procedure, shortened: as §2

[21] = tested on: MDA-MB-468; experiment: as above
Procedure, shortened: as §2

[22] = tested on: HCC1937; experiment: as above
Procedure, shortened: as §2

[23] = tested on: MFM-223; experiment: as above
Procedure, shortened: as §2

[24] = tested on: HCC1599; experiment: as above
Procedure, shortened: as §2

[25] = tested on: HDQ-P1; experiment: as above
Procedure, shortened: as §2

N#CCNC(=O)c1ccc(-c2ccnc(Nc3ccc(N4CCOCC4)cc3)n2)cc1 [Momelotinib]
drug sensitivity score [1]: 0 | drug sensitivity score [2]: 0 | drug sensitivity score [3]: 0 | drug sensitivity score [4]: 4.03 | drug sensitivity score [5]: 7.53 | drug sensitivity score [6]: 0 | drug sensitivity score [7]: 2.22 | drug sensitivity score [8]: 0 | drug sensitivity score [9]: 2.78 | drug sensitivity score [10]: 0 | drug sensitivity score [11]: 0 | drug sensitivity score [12]: 0 | drug sensitivity score [13]: 0 | drug sensitivity score [14]: 0 | drug sensitivity score [15]: 0 | drug sensitivity score [16]: 0 | drug sensitivity score [17]: 0 | drug sensitivity score [18]: 0

CC1(C)NC(=O)N(c2ccc([N+](=O)[O-])c(C(F)(F)F)c2)C1=O [Nilutamide]
drug sensitivity score [2]: 0 | drug sensitivity score [3]: 0 | drug sensitivity score [4]: 0 | drug sensitivity score [5]: 0 | drug sensitivity score [6]: 0 | drug sensitivity score [7]: 0 | drug sensitivity score [8]: 0 | drug sensitivity score [9]: 0 | drug sensitivity score [10]: 0 | drug sensitivity score [11]: 0 | drug sensitivity score [12]: 0 | drug sensitivity score [13]: 0 | drug sensitivity score [14]: 0 | drug sensitivity score [15]: 0 | drug sensitivity score [16]: 0 | drug sensitivity score [17]: 0 | drug sensitivity score [18]: 0 | normalised viability ([19]; 3 nM): 101% | normalised viability ([19]; 30 nM): 96.1% | normalised viability ([19]; 100 nM): 94.6% | normalised viability ([20]; 3 nM): 98% | normalised viability ([20]; 30 nM): 88.9% | normalised viability ([20]; 100 nM): 100% | normalised viability ([21]; 10 nM): 115% | normalised viability ([21]; 1000 nM): 103% | normalised viability ([21]; 10000 nM): 103% | normalised viability ([22]; 10 nM): 105% | normalised viability ([22]; 1000 nM): 87.3% | normalised viability ([22]; 10000 nM): 94.7% | normalised viability ([23]; 10 nM): 108% | normalised viability ([23]; 1000 nM): 98.4% | normalised viability ([23]; 10000 nM): 85.8% | normalised viability ([24]; 10 nM): 97.9% | normalised viability ([24]; 1000 nM): 82.5% | normalised viability ([24]; 10000 nM): 113% | normalised viability ([25]; 3 nM): 124% | normalised viability ([25]; 30 nM): 120% | normalised viability ([25]; 100 nM): 112%

C#Cc1cccc(Nc2ncnc3cc(OCCOC)c(OCCOC)cc23)c1 [Erlotinib]
drug sensitivity score [1]: 0 | drug sensitivity score [2]: 0.507 | drug sensitivity score [3]: 2.1 | drug sensitivity score [4]: 6.41 | drug sensitivity score [6]: 0 | drug sensitivity score [7]: 0 | drug sensitivity score [8]: 0 | drug sensitivity score [9]: 0 | drug sensitivity score [10]: 0 | drug sensitivity score [11]: 0 | drug sensitivity score [12]: 0 | drug sensitivity score [13]: 0 | drug sensitivity score [14]: 0 | drug sensitivity score [15]: 0 | drug sensitivity score [16]: 0 | drug sensitivity score [17]: 0 | drug sensitivity score [18]: 0 | normalised viability ([19]; 3 nM): 102% | normalised viability ([19]; 30 nM): 96.1% | normalised viability ([19]; 100 nM): 98.8% | normalised viability ([20]; 3 nM): 93.7% | normalised viability ([20]; 30 nM): 82.8% | normalised viability ([20]; 100 nM): 88% | normalised viability ([21]; 10 nM): 108% | normalised viability ([21]; 1000 nM): 75.2% | normalised viability ([21]; 10000 nM): 43.6% | normalised viability ([22]; 10 nM): 95% | normalised viability ([22]; 1000 nM): 80.2% | normalised viability ([22]; 10000 nM): 63.6% | normalised viability ([23]; 10 nM): 97.3% | normalised viability ([23]; 1000 nM): 91.5% | normalised viability ([23]; 10000 nM): 54.1% | normalised viability ([24]; 10 nM): 91% | normalised viability ([24]; 1000 nM): 74.5% | normalised viability ([24]; 10000 nM): 54.8% | normalised viability ([25]; 3 nM): 108% | normalised viability ([25]; 30 nM): 94% | normalised viability ([25]; 100 nM): 85%

O=C(CCCCCCC(=O)Nc1ccc([C@H]2O[C@@H](CSc3nc(-c4ccccc4)c(-c4ccccc4)o3)C[C@@H](c3ccc(CO)cc3)O2)cc1)NO [Tubacin]
drug sensitivity score [1]: 2.07 | drug sensitivity score [2]: 1.77 | drug sensitivity score [3]: 3.54 | drug sensitivity score [4]: 5.67 | drug sensitivity score [5]: 7.97 | drug sensitivity score [6]: 0 | drug sensitivity score [7]: 0 | drug sensitivity score [8]: 10.6 | drug sensitivity score [9]: 0 | drug sensitivity score [10]: 0.503 | drug sensitivity score [11]: 0 | drug sensitivity score [12]: 0 | drug sensitivity score [13]: 0 | drug sensitivity score [14]: 0 | drug sensitivity score [15]: 0 | drug sensitivity score [16]: 0 | drug sensitivity score [17]: 0 | drug sensitivity score [18]: 1.38

O=C1CCC(N2C(=O)c3ccccc3C2=O)C(=O)N1 (stereo unspecified) [Thalidomide]
drug sensitivity score [1]: 0 | drug sensitivity score [2]: 0 | drug sensitivity score [3]: 0 | drug sensitivity score [4]: 0 | drug sensitivity score [5]: 0 | drug sensitivity score [6]: 1.58 | drug sensitivity score [7]: 0 | drug sensitivity score [8]: 0 | drug sensitivity score [9]: 0 | drug sensitivity score [10]: 0 | drug sensitivity score [11]: 4.46 | drug sensitivity score [12]: 0 | drug sensitivity score [13]: 0 | drug sensitivity score [14]: 0 | drug sensitivity score [15]: 0 | drug sensitivity score [16]: 0 | drug sensitivity score [18]: 0 | normalised viability ([19]; 3 nM): 90.8% | normalised viability ([19]; 30 nM): 90.7% | normalised viability ([19]; 100 nM): 91.3% | normalised viability ([20]; 3 nM): 102% | normalised viability ([20]; 30 nM): 98.8% | normalised viability ([20]; 100 nM): 101% | normalised viability ([21]; 10 nM): 97.9% | normalised viability ([21]; 1000 nM): 101% | normalised viability ([21]; 10000 nM): 105% | normalised viability ([22]; 10 nM): 85.8% | normalised viability ([22]; 1000 nM): 73.4% | normalised viability ([22]; 10000 nM): 77.9% | normalised viability ([23]; 10 nM): 103% | normalised viability ([23]; 1000 nM): 96.6% | normalised viability ([23]; 10000 nM): 91.4% | normalised viability ([24]; 10 nM): 101% | normalised viability ([24]; 1000 nM): 86% | normalised viability ([24]; 10000 nM): 102% | normalised viability ([25]; 3 nM): 107% | normalised viability ([25]; 30 nM): 101% | normalised viability ([25]; 100 nM): 103%

COc1cc2ncnc(Nc3ccc(F)c(Cl)c3)c2cc1NC(=O)/C=C/CN1CCCCC1 [Dacomitinib]
drug sensitivity score [1]: 0 | drug sensitivity score [2]: 6.2 | drug sensitivity score [3]: 0 | drug sensitivity score [4]: 4.64 | drug sensitivity score [5]: 0 | drug sensitivity score [6]: 0 | drug sensitivity score [7]: 0 | drug sensitivity score [8]: 0 | drug sensitivity score [9]: 0 | drug sensitivity score [10]: 0 | drug sensitivity score [11]: 2.58 | drug sensitivity score [12]: 0 | drug sensitivity score [13]: 0 | drug sensitivity score [14]: 0 | drug sensitivity score [15]: 0 | drug sensitivity score [16]: 0 | drug sensitivity score [17]: 0 | drug sensitivity score [18]: 0

NC(=O)Nc1cc(-c2cccc(F)c2)sc1C(=O)N[C@H]1CCCNC1 [AZD7762]
drug sensitivity score [1]: 0 | drug sensitivity score [2]: 0 | drug sensitivity score [3]: 3.37 | drug sensitivity score [4]: 12.9 | drug sensitivity score [5]: 0.946 | drug sensitivity score [6]: 0 | drug sensitivity score [7]: 6.89 | drug sensitivity score [8]: 0 | drug sensitivity score [9]: 0 | drug sensitivity score [10]: 17.4 | drug sensitivity score [11]: 0 | drug sensitivity score [12]: 0 | drug sensitivity score [13]: 0 | drug sensitivity score [14]: 0 | drug sensitivity score [15]: 0 | drug sensitivity score [16]: 0 | drug sensitivity score [17]: 0 | drug sensitivity score [18]: 0
